Series [1] in a line: HPLC determination of retinol (stabilization of active ingredient). Format: physicochemical. The conditions noted are these: UV 323 nm. On the procedure: Active ingredients can be detected by any known analytical test method which can be e.g. HPLC, GG, ESR depending on the composition. This effect depends on the active lipophilic ingredient encapsulated.
Test Method used: HPLC Chromatography
Instrumentation: Liquid Chromatograph Agilent 1100 with autosampler, UV-detector
Column: Reprosil C-18-AQ; 5μ, 200*4 mm (Fa. Dr. Maisch) with precolumn: • Column Temp.: 20° C. • Mobile Phase: Acetonitrile/THF/Water (54/38/8 v/v/v) • Flow Rate: 1.0 ml/min • Gradient Program: Isocratic • Detection: UV-Detector; 323 nm • Injection Volume: 5 μl; Autosampler • Retention Time: 1.6 min
Reagents: • Acetonitrile (Roth, gradient grade) • THF (Roth, gradient grade) • 2-Propanol (Roth, gradient grade) • Water, twice-distilled • Retinol 50C (BASF, Cosmetic Quality, approx, 50%)—standard • (If not stated otherwise the reagents are used as purchased without any further purification)

A further series relates to Inner forearm. Nature of the series: Reduction of irritation potential, 5 D Intravitaltomography (taum). Format: in vivo, human. The conditions noted are these: 0.3% of retinol occlusively applied onto inner forearm; taum at start point and 48 h after application. The source says:
Reduction of Irritation can be detected by any known analytical test method which can be e.g. 5D IVT, ELISA, Patch Test. HET Cam Test using skin, skin models, cells. This effect depends on the active lipophilic ingredient encapsulated.
Data which measured in accordance with the method as described in “From Morphology To Biochemical State—Intravital Multiphoton Fluorescence Lifetime Imaging Of Inflamed Human Skin”, by Volker Huck et al. published in www.nature.com/scientificreports, 23 Mar. 2016; the disclosure of which is hereby incorporated by reference. Referring now to FIGS. 3 and 4, FIGS. 3 and 4 illustrate the Taum measurement. The delivery system of the invention can achieve Tau values of about 100 ps to about 3000 ps, about 300 ps to about 2500 ps and in some cases about 500 ps to about 1500 ps in the Stratum granulosum and Stratum spinosum.

This note sets out measurements from patent US20230301896A1, “COMPOSITION FOR PENETRATING SUGAR BASED DELIVERY SYSTEM” (Evonik Operations GmbH, priority 2015, published 2023).

SMILES strings stand for the structures.

Turning to `CC1=C(/C=C/C(C)=C/C=C/C(C)=C/CO)C(C)(C)CCC1` [retinol, Retinol], in series [1], the “stabilization of Retinol (HPLC)” value is “degrades”. In addition, in the series with Inner forearm, the irritation potential entry is “significantly higher”.
